Consider 71 molecules from ChEMBL document CHEMBL3507680, “University of Dundee, Gates Library screen for HepG2 cell viability”.

Several values for one entry are separate records, joined by “and”; a condition that tells them apart may be missing. Equal values may be shown once.

The first data set is described as follows: Human HepG2 cell viability assay in 384 well format. It is filed as toxicity, cell-based. Also on record: dose 125 nL, time 70.5 hour; cytotoxicity at 70.5 h: concentration not given beside the values. The following applies: HepG2 cells, read-out: Inhibition.
For the molecule `CCOc1cccc(CNC2CCCN(Cc3noc(C)n3)C2)c1` (stereo unspecified), the cytotoxicity at 70.5 h was -12.1%.

`COc1c(C2CCCN2Cc2nnc(C3CC3)o2)c(C)nn1C` (stereo unspecified): the cytotoxicity at 70.5 h is -4.73%.

As to `CN1C(=O)c2ccc(NC(=O)CSc3ccc4c(c3)CCC4)cc2C1=O`, the cytotoxicity at 70.5 h is -3.82%.

For the molecule `Cn1nc(Cn2cccn2)c2c1CN(Cc1ccoc1)C2`, the cytotoxicity at 70.5 h was -3.73%.

Regarding `CCc1nnc2n1CCN(C(=O)c1cc3ccccc3[nH]1)C2`, the cytotoxicity at 70.5 h was -7.28%.

Consider `Cc1cc(C(=O)NCCC2CCN(C)CC2)ccc1N(C)S(C)(=O)=O`, for which the cytotoxicity at 70.5 h is -10.7%.

For `CCCN(CCC)C(=O)c1cnn(C)c1C`, the cytotoxicity at 70.5 h amounted to 9.54%.

As to `Cc1ccccc1N1CC2(CCN(S(=O)(=O)c3cccs3)C2)CC1=O` (stereo unspecified), the cytotoxicity at 70.5 h was found to be 14%.

Regarding `O=C1CO[C@H]2CN(S(=O)(=O)c3ccccc3)C[C@H]2N1CC1CCCCC1`, the cytotoxicity at 70.5 h is -11.1%.

On to `CCN(C)S(=O)(=O)N1CCC(C(O)c2ccc(Cl)cc2)CC1` (stereo unspecified), for which the cytotoxicity at 70.5 h was -8.06%.

Turning to `CCc1nc(C2CCCN2C(=O)c2ccc(N3CCCC3)nn2)no1` (stereo unspecified), the cytotoxicity at 70.5 h was -3.36%.

For the molecule `Cc1nc(COCc2nc3c(o2)CN(C(=O)c2ccoc2)C3)cs1`, the cytotoxicity at 70.5 h is -7.05%.

Regarding `CC(C)Cc1noc(CN2CCOC(Cn3cncn3)C2)n1` (stereo unspecified), the cytotoxicity at 70.5 h was -5.1%.

Consider `Cc1cc(NC(=O)c2ccc(CN3CC[C@H](O)C3)cc2)ccc1F`, for which the cytotoxicity at 70.5 h was -13.5%.

As to `Cc1cc(C)nc(CN(C)c2nc(C3CCCC3)nc3c2cnn3C)c1`, the cytotoxicity at 70.5 h was -9.74%.

Regarding `Cn1cc(CN2CCCC(c3nc(O)cc(-c4cccs4)n3)C2)cn1` (stereo unspecified), the cytotoxicity at 70.5 h was -6.31%.

With `Cc1ccc(CNC(c2ccc(F)cc2)c2nccn2C)o1` (stereo unspecified), the cytotoxicity at 70.5 h is -7.32%.

Take `CNC(=O)C1Cn2ccnc2C2(CCN(C(=O)NC3CCCC3)CC2)O1` (stereo unspecified): the cytotoxicity at 70.5 h was -9.83%.

In the case of `Cn1cc(CN2CCCn3cnc(CN4CCCC4=O)c3C2)cn1`, the cytotoxicity at 70.5 h was -17.3%.

Regarding `Cc1cc(-c2nn(C)c(Cl)c2CN2CCOC(C(=O)O)C2)no1` (stereo unspecified), the cytotoxicity at 70.5 h stood at 13.8%.

Consider `O=C1COc2ccc(S(=O)(=O)NCC3CCCO3)c3c2N1CCC3` (stereo unspecified), for which the cytotoxicity at 70.5 h worked out at 1.71%.

`COCCn1c2c(ccc1=O)CC(NCc1cccnc1OC)CC2` (stereo unspecified): the cytotoxicity at 70.5 h is -13.6%.

For `CC(C)N(C)C(=O)C1CSCN1S(=O)(=O)c1cccs1` (stereo unspecified), the cytotoxicity at 70.5 h was -8.56%.

For the molecule `O=C(Nc1nnc(C(F)F)s1)NC(CCO)c1cccs1` (stereo unspecified), the cytotoxicity at 70.5 h was 32.8%.

For the molecule `CC(C)[C@H](Nc1cc(-c2ccncc2)nc2ccnn12)C(N)=O`, the cytotoxicity at 70.5 h amounted to 6.65%.

`CSc1nccc(N2CCC3(CCCN(Cc4cccc(C)c4)C3)C2)n1` (stereo unspecified): the cytotoxicity at 70.5 h was -0.65%.

Take `CCS(=O)(=O)N1C[C@@H](C(=O)NC(C)C)[C@@]2(Cc3ccccc3C(=O)N2)C1`: the cytotoxicity at 70.5 h is -11.3%.

Regarding `Cc1cc(C)n(CC2CCCN2CC(=O)N(C)Cc2ccco2)n1` (stereo unspecified), the cytotoxicity at 70.5 h was -8.36%.

For `CC(C)n1c(C2CCCN(CCS(C)(=O)=O)C2)nc2ccccc21` (stereo unspecified), the cytotoxicity at 70.5 h was -0.395%.

Consider `CCc1c(C)nc2n(c1=O)CC(C(=O)Nc1sccc1C(=O)OC)CS2` (stereo unspecified), for which the cytotoxicity at 70.5 h was -6.34%.

Consider `COc1ccc(CNCc2cn(C)nc2C)cc1`, for which the cytotoxicity at 70.5 h was -2.32%.

With `Cc1cc(NC(=O)c2ccc(N3CCOCC3)c(C)c2)[nH]n1`, the cytotoxicity at 70.5 h is 8.26%.

Regarding `Cc1nc(C(=O)NCCS(=O)(=O)N2CCCC2)cs1`, the cytotoxicity at 70.5 h worked out at 13.7%.

`C=C(C)COc1cccc(CNCc2nc3ccccc3c(=O)[nH]2)c1`: the cytotoxicity at 70.5 h came to 0.0265%.

On to `Cc1ccc(N2CCO[C@H]3CN(CC4CC4)C[C@H]32)nn1`, for which the cytotoxicity at 70.5 h was -13.4%.

Regarding `CC(C)OCc1ccccc1CNC(=O)C(C)S(=O)(=O)C(C)C` (stereo unspecified), the cytotoxicity at 70.5 h is -5.26%.

For the molecule `CN(C(=O)Cc1ccc(NC(=O)NC2CC2)cc1)c1ccccc1`, the cytotoxicity at 70.5 h stood at 19.9%.

For the molecule `CC[C@H](N)C(=O)Nc1nn(CC(F)(F)F)c2cc(OC(C)C)ccc12`, the cytotoxicity at 70.5 h was -14.2%.

In the case of `CCN(Cc1nc2c(cnn2C)c(=O)[nH]1)Cc1cccs1`, the cytotoxicity at 70.5 h is -7.33%.

With `COc1c(C)cnc(CN(C)C2CCCCC2)c1C`, the cytotoxicity at 70.5 h was 8.25%.

With `CC(O)CN(CC(=O)NC(=O)NC1CC1)c1ccccc1` (stereo unspecified), the cytotoxicity at 70.5 h is -11%.

Regarding `COc1ccc(CNC(=O)CNc2ccccc2OC)cc1`, the cytotoxicity at 70.5 h was 2.91%.

Consider `COc1ccccc1OCCC(=O)NC1CCc2nc(C)cn2C1` (stereo unspecified), for which the cytotoxicity at 70.5 h is -3.16%.

Consider `CCn1cnnc1CNC(=O)NCC(c1cccs1)N1CCCC1` (stereo unspecified), for which the cytotoxicity at 70.5 h is -14%.

`Nc1nc(Sc2cccs2)cc(N2CC[C@H](CO)[C@H](O)C2)n1`: the cytotoxicity at 70.5 h was determined as 22.1%.

Take `c1cncc(O[C@H]2COCCN(C3CCC3)C2)c1`: the cytotoxicity at 70.5 h worked out at 1.49%.

Turning to `Cc1nc(C2CCCN2CCCS(=O)(=O)c2ccccc2)no1` (stereo unspecified), the cytotoxicity at 70.5 h is -3.41%.

Consider `Cc1cnn(CCNCc2csc(-c3ccc4c(c3)OCO4)n2)c1`, for which the cytotoxicity at 70.5 h is 10.2%.

`CCCN1CCC(CNC(=O)C2(c3ccccc3)CCC2)C1` (stereo unspecified): the cytotoxicity at 70.5 h was 18.5%.

In the case of `Cc1cc(C(=O)N2C[C@@H]3CCCO[C@@H]3[C@H](N(C)C(C)C)C2)c(C)[nH]1`, the cytotoxicity at 70.5 h is -6.48%.

With `Cc1ccc2c(n1)N(CCN(C)C)CCN(C(=O)N1CCOCC1)C2`, the cytotoxicity at 70.5 h was -3.39%.

With `COc1ncccc1NC(=O)NC(CCCO)c1ccccc1` (stereo unspecified), the cytotoxicity at 70.5 h turned out to be 11.2%.

For the molecule `CN1CC(C(=O)NCCc2ccn(-c3ccc(F)cc3)n2)CC1=O` (stereo unspecified), the cytotoxicity at 70.5 h is -9.34%.

`Cc1ncsc1CN1C[C@@H](OCc2ccccn2)[C@H]2OCCC[C@H]21`: the cytotoxicity at 70.5 h was determined as 7.35%.

As to `CCS(=O)(=O)Nc1ccc(C(=O)NCCCN2CCCC2)cc1`, the cytotoxicity at 70.5 h is -4.61%.

As for `CC(C)n1cc(CN2CCCN(C(=O)c3cccnc3O)CC2)cn1`, the cytotoxicity at 70.5 h was -2.94%.

Turning to `CC(C)c1cc(CSCCC(=O)O)no1`, the cytotoxicity at 70.5 h is -4.33%.

For the molecule `O=C(COCCOc1ccccc1)N1CCCC(n2ccnc2)C1` (stereo unspecified), the cytotoxicity at 70.5 h was -4.49%.

Take `CCOCc1ccccc1CNc1ccc2nncn2n1`: the cytotoxicity at 70.5 h was -5.87%.

As for `CC1N(CC2CC2)C(=O)COC12CCN(C(=O)c1ccno1)CC2` (stereo unspecified), the cytotoxicity at 70.5 h is -4.07%.

On to `O=C1CC(c2ccc3c(c2)OCO3)c2c(n3ccsc3nc2=O)N1` (stereo unspecified), for which the cytotoxicity at 70.5 h was -9.84%.

Regarding `CCc1nnc(NC(=O)c2c3c(nn2C2CCS(=O)(=O)C2)CCC3)s1` (stereo unspecified), the cytotoxicity at 70.5 h was -6.09%.

With `Cc1c(C(=O)NC2CCCOC2)nnn1-c1ccccc1` (stereo unspecified), the cytotoxicity at 70.5 h came to 17.4%.

Consider `Fc1cccnc1N1CCOCC2(CCCNC2)C1` (stereo unspecified), for which the cytotoxicity at 70.5 h worked out at 0.635%.

Turning to `CC(NS(=O)(=O)CCCC#N)c1cccc(-n2cccn2)c1` (stereo unspecified), the cytotoxicity at 70.5 h is -10.5%.

As for `CNc1cccc(C2CN(C(=O)c3c[nH]cn3)CCO2)n1` (stereo unspecified), the cytotoxicity at 70.5 h stood at 5.85%.

As for `COc1ccc(C(=O)NC2CCN(c3ncccn3)CC2)cc1F`, the cytotoxicity at 70.5 h is -8.33%.

As to `O=C(N[C@H]1CC[C@H](O)CC1)c1ccc2nc(-c3ccccc3)cn2c1`, the cytotoxicity at 70.5 h is -7.18%.

`CCc1nsc(NC2CCOC3(CCCC3)C2)n1` (stereo unspecified): the cytotoxicity at 70.5 h came to 1.42%.

`Cn1nc(Cn2ccnc2)c2c1CN(C(=O)c1ccc[nH]1)C2`: the cytotoxicity at 70.5 h is -10.6%.

The data set is the same for the next values; noted with them: hepg2, 70.5 h, 70.5 h.
`CC1=Nc2c(c(=O)[nH]n2C2CCCC2)C(c2ccc(C(=O)O)cc2)S1` (stereo unspecified): the Inhibition (as a rule, the relative decrease from the control value, in per cent) is -12.72% and -17.34%.
